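Dose response: 5 concentrations. Exposure: 48 h. Format: 96-well plates. Endpoint: linear interpolation; highest concentration if not reached. GI50 marks 50% less growth.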 Active and inactive are the calls of the source. No stated cut-off is given here; in the data, active = GI50 up to about 1.1 µM and inactive = higher.
How the values were obtained:
Assay in all cases: DTP human tumour cell line panel, 48 h
[1] = system: SF-268
[2] = system: HT-29
[3] = system: SNB-19
[4] = system: CCRF-CEM
[5] = system: SK-MEL-28
[6] = system: KM12
[7] = system: PC-3
[8] = system: SW-620
[9] = system: 786-0
[10] = system: NCI/ADR-RES
[11] = system: UO-31
[12] = system: SK-MEL-2
[13] = system: HCC 2998
[14] = system: SF-295
[15] = system: MDA-MB-435
[16] = system: HL-60
[17] = system: ACHN
[18] = system: HCT-116
[19] = system: A549

SMILES	GI50 [1]	GI50 [2]	GI50 [3]	GI50 [4]	GI50 [5]	GI50 [6]	GI50 [7]	GI50 [8]	GI50 [9]	GI50 [10]	GI50 [11]	GI50 [12]	GI50 [13]	GI50 [14]	GI50 [15]	GI50 [16]	GI50 [17]	GI50 [18]	GI50 [19]
CC(C)(C)CC(C)(C)c1ccc(O)c(C[N+](C)(C)[O-])c1	85.5 µM (inactive)	73.6 µM (inactive)	> 100 µM (inactive)	41.8 µM (inactive)	> 100 µM (inactive)	> 100 µM (inactive)	85.7 µM (inactive)	> 100 µM (inactive)	> 100 µM (inactive)	> 100 µM (inactive)	60.1 µM (inactive)	> 100 µM (inactive)	31.9 µM (inactive)	> 100 µM (inactive)	79.4 µM (inactive)	33.3 µM (inactive)	> 100 µM (inactive)	98.6 µM (inactive)	> 100 µM (inactive)
O=C1C[C@@H](Sc2ccccc2)C2(OCCO2)[C@H]2ON3CCC[C@@H]3[C@@H]12	2.95 µM (inactive)	1.17 µM (inactive)	14.8 µM (inactive)	0.782 µM (active)	7.83 µM (inactive)	4.4 µM (inactive)	4.55 µM (inactive)	2.14 µM (inactive)	2.07 µM (inactive)	3.31 µM (inactive)	1.94 µM (inactive)	3.72 µM (inactive)	8 µM (inactive)	11.4 µM (inactive)	2.58 µM (inactive)	1.38 µM (inactive)	3.4 µM (inactive)	1.55 µM (inactive)	10.3 µM (inactive)
CC(C)/C(Cl)=N/OC(=O)Nc1ccc(F)c(Cl)c1	19.4 µM (inactive)	5.69 µM (inactive)	22.6 µM (inactive)	1.31 µM (inactive)	2.23 µM (inactive)	16.6 µM (inactive)	16.1 µM (inactive)	1.92 µM (inactive)	1.6 µM (inactive)	14.5 µM (inactive)	16.7 µM (inactive)	18.8 µM (inactive)	14.6 µM (inactive)	16.1 µM (inactive)	7.26 µM (inactive)	2.03 µM (inactive)	1.88 µM (inactive)	2.54 µM (inactive)	18.1 µM (inactive)
C=C(C)[C@H]1CC(=O)[C@@]2(C)C[C@H]3O[C@]3(C)CC/C=C(\C)CC[C@H]12	77.3 µM (inactive)	34.1 µM (inactive)	70 µM (inactive)	32.7 µM (inactive)	50.4 µM (inactive)	16 µM (inactive)	34.7 µM (inactive)	42.3 µM (inactive)	62.8 µM (inactive)	35.4 µM (inactive)	57.1 µM (inactive)	45.1 µM (inactive)	> 100 µM (inactive)	> 100 µM (inactive)	43.8 µM (inactive)	21.6 µM (inactive)	42.9 µM (inactive)	33.9 µM (inactive)	58.1 µM (inactive)
O=C1CSC(c2cc3cc(Br)ccc3nc2Cl)N1c1ccc(F)c(Cl)c1 (stereo unspecified)	29.5 µM (inactive)	> 50 µM (inactive)	> 50 µM (inactive)	13.1 µM (inactive)	> 50 µM (inactive)	35.6 µM (inactive)	29.9 µM (inactive)	28.5 µM (inactive)	27.4 µM (inactive)	> 50 µM (inactive)	> 50 µM (inactive)	> 50 µM (inactive)	> 50 µM (inactive)	> 50 µM (inactive)	25.1 µM (inactive)	> 50 µM (inactive)	> 50 µM (inactive)	> 50 µM (inactive)	> 50 µM (inactive)
COc1cc2[nH]c(=O)[nH]c2c2c(C)c[nH]c12	> 100 µM (inactive)	> 100 µM (inactive)	> 100 µM (inactive)	> 100 µM (inactive)	> 100 µM (inactive)	> 100 µM (inactive)	> 100 µM (inactive)	> 100 µM (inactive)	> 100 µM (inactive)	> 100 µM (inactive)	> 100 µM (inactive)	> 100 µM (inactive)	> 100 µM (inactive)	> 100 µM (inactive)	> 100 µM (inactive)	> 100 µM (inactive)	> 100 µM (inactive)	> 100 µM (inactive)	> 100 µM (inactive)
C/C(=N\Nc1nc2cc(Cl)ccc2s1)c1ccccn1	0.365 µM (active)	0.0824 µM (active)	1.01 µM (active)	0.373 µM (active)	2.56 µM (inactive)	0.63 µM (active)	1.35 µM (inactive)	0.817 µM (active)	0.617 µM (active)	0.343 µM (active)	0.0685 µM (active)	0.442 µM (active)	11.5 µM (inactive)	0.914 µM (active)	1.83 µM (inactive)	0.14 µM (active)	0.191 µM (active)	0.301 µM (active)	0.755 µM (active)
Cc1cc(NS(=O)(=O)c2ccc(NC(=O)c3ccc4nc5ccccc5c(Nc5ccc(S(=O)(=O)Nc6cc(C)on6)cc5)c4c3)cc2)no1	> 50 µM (inactive)	> 50 µM (inactive)	> 50 µM (inactive)	> 50 µM (inactive)	> 50 µM (inactive)	> 50 µM (inactive)	> 50 µM (inactive)	> 50 µM (inactive)	> 50 µM (inactive)	> 50 µM (inactive)	> 50 µM (inactive)	> 50 µM (inactive)	> 50 µM (inactive)	> 50 µM (inactive)	> 50 µM (inactive)	> 50 µM (inactive)	> 50 µM (inactive)	> 50 µM (inactive)	> 50 µM (inactive)
O=C1N[C@@H](c2c[nH]c3cc(Br)ccc23)C(=O)N[C@H]1c1c[nH]c2cc(Br)ccc12	47.4 µM (inactive)	> 100 µM (inactive)	> 100 µM (inactive)	> 100 µM (inactive)	> 100 µM (inactive)	83.9 µM (inactive)	> 100 µM (inactive)	> 100 µM (inactive)	> 100 µM (inactive)	> 100 µM (inactive)	> 100 µM (inactive)	> 100 µM (inactive)	> 100 µM (inactive)	> 100 µM (inactive)	> 100 µM (inactive)	> 100 µM (inactive)	> 100 µM (inactive)	> 100 µM (inactive)	> 100 µM (inactive)
CC1(C)OC(=O)N(c2ccccc2)C12C=Cc1cc([N+](=O)[O-])cc([N+](=O)[O-])c1O2 (stereo unspecified)	98.9 µM (inactive)	> 100 µM (inactive)	> 100 µM (inactive)	> 100 µM (inactive)	> 100 µM (inactive)	> 100 µM (inactive)	91.2 µM (inactive)	> 100 µM (inactive)	> 100 µM (inactive)	> 100 µM (inactive)	34.2 µM (inactive)	> 100 µM (inactive)	> 100 µM (inactive)	> 100 µM (inactive)	83.9 µM (inactive)	61.9 µM (inactive)	> 100 µM (inactive)	> 100 µM (inactive)	> 100 µM (inactive)
Cc1ccc(NC(c2ccccc2)c2ccc3cccnc3c2O)cc1 (stereo unspecified)	2.24 µM (inactive)	2.9 µM (inactive)	6.37 µM (inactive)	0.787 µM (active)	9.29 µM (inactive)	5.02 µM (inactive)	3.66 µM (inactive)	6.34 µM (inactive)	3.61 µM (inactive)	2.79 µM (inactive)	3.33 µM (inactive)	7.5 µM (inactive)	16.4 µM (inactive)	3.72 µM (inactive)	5.87 µM (inactive)	2.04 µM (inactive)	3.67 µM (inactive)	3.23 µM (inactive)	5.56 µM (inactive)
COc1ccc(NC(C(N)=O)c2cc3cc(Br)ccc3nc2Cl)cc1 (stereo unspecified)	76.4 µM (inactive)	> 100 µM (inactive)	> 100 µM (inactive)	26.2 µM (inactive)	> 100 µM (inactive)	48.4 µM (inactive)	44.6 µM (inactive)	38.7 µM (inactive)	> 100 µM (inactive)	39 µM (inactive)	> 100 µM (inactive)	30.3 µM (inactive)	73.8 µM (inactive)	38.4 µM (inactive)	22.1 µM (inactive)	25.4 µM (inactive)	> 100 µM (inactive)	61 µM (inactive)	91.8 µM (inactive)
O=C1Cc2c([nH]c3ccc([N+](=O)[O-])cc23)-c2ccccc2N1 [ALSTERPAULLONE]	0.471 µM (active)	0.389 µM (active)	0.478 µM (active)	0.118 µM (active)	0.345 µM (active)	0.165 µM (active)	0.836 µM (active)	0.348 µM (active)	0.406 µM (active)	0.61 µM (active)	0.109 µM (active)	0.713 µM (active)	0.914 µM (active)	0.92 µM (active)	0.499 µM (active)	0.261 µM (active)	0.288 µM (active)	0.116 µM (active)	0.211 µM (active)
C[C@H](CCC(=O)O)[C@H]1CC[C@H]2[C@@H]3CC[C@@H]4C[C@H](O)CC[C@]4(C)[C@H]3C[C@H](O)[C@]12C [DEOXYCHOLIC ACID]	40.1 µM (inactive)	34.1 µM (inactive)	40.1 µM (inactive)	23.9 µM (inactive)	63.1 µM (inactive)	49.4 µM (inactive)	33.6 µM (inactive)	47.8 µM (inactive)	45.8 µM (inactive)	44.5 µM (inactive)	37.6 µM (inactive)	31.2 µM (inactive)	61.2 µM (inactive)	17.8 µM (inactive)	42.2 µM (inactive)	30.1 µM (inactive)	37.8 µM (inactive)	32.9 µM (inactive)	35.9 µM (inactive)
